From PubChem BioAssay (NCI)
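Method: 48-hour compound exposure of cells in 96-well plates, five concentrations, linear interpolation of endpoints. The concentration for full growth arrest is given as TGI.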

Experiments:
Test in all cases: growth of human tumour cells (NCI), 48 h
A549 NSCLC = test system: A549 NSCLC
CCRF-CEM leukemia = test system: CCRF-CEM leukemia
HL-60(TB) leukemia = test system: HL-60(TB) leukemia
MCF7 breast = test system: MCF7 breast
MDA-MB-435 = test system: MDA-MB-435
NCI-H226 lung = test system: NCI-H226 lung
OVCAR-4 ovarian = test system: OVCAR-4 ovarian
OVCAR-8 ovarian = test system: OVCAR-8 ovarian
SK-MEL-2 melanoma = test system: SK-MEL-2 melanoma
UACC-257 melanoma = test system: UACC-257 melanoma

SMILES | TGI (A549 NSCLC) [µM] | TGI (CCRF-CEM leukemia) [µM] | TGI (HL-60(TB) leukemia) [µM] | TGI (MCF7 breast) [µM] | TGI (MDA-MB-435) [µM] | TGI (NCI-H226 lung) [µM] | TGI (OVCAR-4 ovarian) [µM] | TGI (OVCAR-8 ovarian) [µM] | TGI (SK-MEL-2 melanoma) [µM] | TGI (UACC-257 melanoma) [µM]
COc1ccc(C(C)NNC(=O)c2ccncc2)cc1F (stereo not given) | > 100 | > 100 | > 100 | > 100 | > 100 | > 100 | > 100 | > 100 | > 100 | > 100
Cc1nnc2sc(-c3ccc([N+](=O)[O-])o3)nn12 | > 100 | > 100 | 8.58 | 26.5 | 17.5 | 34.5 | 30.7 | 27.5 | 24.2 | 26.8
COC1=CC(=O)c2c(cc(COP(=O)(N(C)CCBr)N(C)CCBr)n2C)C1=O | 7.18 | 19 | > 100 | 8.42 | 2.35 | 1.43 | 20.4 | 3.98 | 4.87 | 12.9
Cc1ccc2c(=O)c(C(=O)N(CCO)CCO)c[nH]c2n1 | > 100 | > 100 | > 100 | > 100 | > 100 | > 100 | > 100 | > 100 | > 100 | > 100
Nc1ccc(-c2nc3ccccc3s2)cc1 | 63.2 | 54.4 | 61.6 | 39.4 | 32.1 | 49 | 35.6 | 17.7 | 64.2 | 49.7
CCOC(=O)C1=C(C)N(c2ccc(C)cc2)C2(O)C=CC(=O)C3=C(O)c4ccccc4C(=O)C312 (stereo not given) | > 100 | > 100 | 0.039 | 63 | > 100 | > 100 | 90.9 | > 100 | 94.1 | 57.9
O=C(NCCCCNCCCNC(=O)OCc1ccccc1)OCc1ccccc1 | > 100 | 82.1 | 60.4 | 71.2 | > 100 | > 100 | > 100 | 67.1 | 59.8 | 41.3
COc1ccc(C2=NNC(=O)c3ccccc3N2c2nc(-c3cccs3)nc3ccc(Br)cc23)cc1 | > 100 | > 100 | > 100 | > 100 | > 100 | 73.7 | > 100 | > 100 | > 100 | > 100
OC(O)(C(F)(F)F)C(F)(F)F | > 100 | > 100 | > 100 | > 100 | > 100 | > 100 | > 100 | > 100 | > 100 | > 100
COC(=O)C[C@H](CCSC)NC(=O)C[C@H](CCSC)NC(=O)C[C@H](CCSC)NC(=O)OC(C)(C)C | > 100 | > 100 | > 100 | > 100 | > 100 | > 100 | 55.9 | > 100 | 64.5 | > 100
CCOC(=O)N1C(=S)C(C(=O)OC)(C(=O)OC)N=C1C | > 100 | > 100 | > 100 | > 100 | > 100 | > 100 | > 100 | > 100 | > 100 | > 100
CSc1ccccc1P(CCP(c1ccccc1SC)c1ccccc1SC)c1ccccc1SC | > 100 | 29.6 | 16.3 | > 100 | > 100 | > 45.2 | > 100 | > 100 | > 97.2 | > 89.5
COc1ccc(C2NC(=O)Nc3c2c(=O)oc2c3ccc3ccccc32)cc1 (stereo not given) | > 100 | > 100 | > 100 | > 100 | > 100 | 96.9 | > 100 | > 100 | 82.8 | > 100
COc1cc2c(cc1O)CC[C@@H]1C2CC[C@@]2(C)C1CC[C@@H]2O (stereo not given in full) | > 100 | 22.3 | 8.18 | > 100 | 0.927 | > 100 | > 100 | 39.4 | > 100 | > 100
CC1(C)CC(=O)C(=CN2C(=O)CNC2=S)C(=O)C1 | > 100 | > 100 | > 100 | > 100 | > 100 | > 100 | > 100 | > 100 | > 100 | > 100
c1ccc2c(c1)c1c3n2-c2cc(on2)C3CCC1 (stereo not given) | > 100 | > 100 | > 100 | > 100 | > 100 | > 100 | > 100 | > 100 | > 100 | > 100
CCOC(=O)CCC(C(=O)OCC)n1nnc2cc(Nc3c(C)[n+]([O-])c4ccc(Cl)cc4[n+]3[O-])ccc21 (stereo not given) | > 100 | > 100 | > 100 | 93 | > 100 | > 100 | > 100 | > 100 | > 100 | > 100

SMILES | TGI (A549 NSCLC) [µM] | TGI (CCRF-CEM leukemia) [µM] | TGI (HL-60(TB) leukemia) [µM] | TGI (MCF7 breast) [µM] | TGI (MDA-MB-435) [µM] | TGI (NCI-H226 lung) [µM] | TGI (OVCAR-4 ovarian) [µM] | TGI (OVCAR-8 ovarian) [µM] | TGI (SK-MEL-2 melanoma) [µM] | TGI (UACC-257 melanoma) [µM]
CC(C)CC(NC(=O)C(COc1ccc([N+](=O)[O-])cc1)Cc1ccccc1)C(=O)Nc1ccccc1 (stereo not given) | 69.2 | > 100 | > 100 | > 100 | > 100 | 16.1 | 8.33 | 27.4 | 74.1 | > 100
COc1cccc(C2CC(=O)c3cccn32)c1 (stereo not given) | > 100 | > 100 | 96 | > 100 | > 100 | > 100 | > 100 | > 100 | > 100 | > 100
N#Cc1c(C#N)c(-c2ccccc2)n(/N=C\c2ccccc2)c1N | 71.4 | 51.2 | > 100 | > 100 | > 100 | 68.7 | 59.9 | > 100 | 87.3 | 70.3
COC(=O)c1c(C#C[Si](C)(C)C)c(C#C[Si](C)(C)C)c(C#C[Si](C)(C)C)c(C#C[Si](C)(C)C)c1C(=O)OC | > 100 | > 100 | > 100 | > 100 | > 100 | > 100 | > 100 | > 100 | > 100 | > 100
O=C(O)CCCc1ccc2c(c1)CC1(C2)Cc2ccc(CCCC(=O)O)cc2C1 | > 100 | > 100 | > 100 | > 100 | > 100 | > 100 | > 100 | > 100 | > 100 | > 100
Cc1ccc([N+](=O)[O-])cc1NC(=O)C(=O)C1CCC2=C(Sc3ccccc3N2)C1=O (stereo not given) | > 100 | > 100 | > 100 | > 100 | > 100 | > 100 | > 100 | > 100 | > 100 | > 100
C=C(C(=O)OC)[C@H]1CC/C(C)=C/CC/C(C)=C/CC[C@@]2(C)O[C@@H]2C1 | 37.4 | 30 | 30.9 | 37.8 | 58.5 | 44.4 | > 100 | 31.4 | 29.9 | 62.3
C=C1C(=O)O[C@H]2C3C(=C(C)CC[C@@H]12)C(=O)[C@@H]1OC31C (stereo not given in full) | 28.3 | 1.31 | 0.469 | 11.2 | 7.13 | 20.5 | 3.39 | 5.42 | 18.3 | 5.98
COc1cc(-c2[o+]c3cc(O)cc(OC4OC(CO)C(O)C(O)C4O)c3cc2OC2OC(CO)C(O)C(O)C2O)cc(OC)c1O (stereo not given) | > 100 | > 100 | > 100 | > 100 | > 100 | > 100 | > 100 | > 100 | > 100 | > 100
O=C(NC/C=C/Br)NC1CCNc2ccccc21 (stereo not given) | > 100 | > 100 | > 100 | 47.9 | 88.9 | > 100 | > 100 | > 100 | 86.8 | 54.9
O=c1/c(=C/c2ccc(-c3ccc(Cl)cc3Cl)o2)sc2n1[C@@H](c1ccc3c(c1)OCO3)C=C(c1cc(F)c(Cl)cc1Cl)N=2 | > 100 | > 100 | > 100 | > 100 | > 100 | > 100 | > 100 | > 100 | 71.1 | 71.1
COc1cc(S(=O)(=O)N/N=C/c2cc(Br)c(O)c(OC)c2)c(OC)cc1NC(C)=O | > 100 | 56.5 | 58 | > 100 | > 100 | > 100 | > 100 | > 100 | > 100 | > 100
CCCCCCCCC[n+]1cccc(C2C(C(=O)OCC)=C(C)NC(C)=C2C(=O)OCC)c1 | 36.1 | 6.85 | 6.25 | 6.74 | 4.48 | 28.7 | 21.1 | 11.2 | 3.29 | 7.73
c1ccc(CNc2ncnc3n[nH]nc23)cc1 | > 100 | > 100 | > 100 | > 100 | > 100 | > 100 | > 100 | > 100 | > 100 | > 100
CCOC(=O)c1cc(-c2ccn(C(C)=O)c2)c(-c2cc(C)co2)[nH]1 | > 100 | > 100 | > 100 | > 100 | > 100 | > 100 | > 100 | > 100 | > 100 | > 100
COC(=O)C1=C(C)NC2(C)OC(C)(O)C(C(C)=O)C12C(C)=O (stereo not given) | > 100 | > 100 | > 100 | > 100 | > 100 | 53.1 | > 100 | > 100 | 54.6 | > 100
COC(=O)C(C(=O)OC)C1CC(=O)c2c(Br)sc(Br)c21 (stereo not given) | 68.8 | 15.4 | 49.9 | 73.2 | 40.9 | 53.4 | 26.3 | 37.8 | 27.4 | 76.8
